Reference: the supplement of paper PMC11208160

Assay: recombinant barcode read abundance after kanamycin selection (control-corrected) (log10(CPM+1)); higher = more efficient recombination; sequences stand for … in AGTGCAGAGAAAATCGGCCAGTTTTCTCTGCCTGCAGTCCGCATGCCGT…AGATTTATGCAGCGGACTGCCTTTCTCCCAAAGTGATAAACCGGACAGTATCATGGACCGGTTTTCCCGGTAATCCGTATTTGCAAGGTTGGTTTCACT; site = the 11-nt target
Outline: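 In a pooled screen in E. coli, targets were paired with target-binding loops of the IS621 bridge RNA. Each oligo carried a promoter, a target, a barcode and the first 104 bridge RNA bases driven by J23119, and was Gibson-cloned into a vector holding the remaining 73 bp and a T7-inducible recombinase before co-electroporation with a donor plasmid. Duplicate platings went onto chloramphenicol/ampicillin LB agar as the control or onto chloramphenicol/ampicillin/kanamycin with 0.1 mM IPTG. Recombination efficiency is the averaged, control-corrected count per million of barcodes at recombinant junctions, given as log10(CPM+1).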
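Also: IS621 recombinase and bridge RNA in Escherichia coli cells.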

| Sequence | recombinant barcode read abundance (log10) |
| --- | --- |
| TAGCACCCTTGGGTTCTAACCTGTTGCCT (site TAGCACCCTGG) | 0.671 |
| TAGCACCCTTGGGTTCTAACCTGTTGCCT (site TAGCACCCTTG) | 0.144 |
| TAGCATACTTGGGTTCTAACCTGTTGCCT (site TAGCATACTAG) | 1.37 |
| TAGCATACTTGGGTTCTAACCTGTTGCCT (site TAGCATACTCG) | 0.112 |
| TAGCATACTTGGGTTCTAACCTGTTGCCT (site TAGCATACTGG) | 0.308 |
| TAGCATACTTGGGTTCTAACCTGTTGCCT (site TAGCATACTTG) | 0.0681 |
| TAGCCCACTTGGGTTCTAACCTGTTGCGG (site TAGCACACTCC) | 0.0811 |
| TAGCCCACTTGGGTTCTAACCTGTTGCGG (site TAGCCCACTCC) | 1.35 |
| TAGCCCACTTGGGTTCTAACCTGTTGCGG (site TAGCGCACTCC) | 0.0188 |
| TAGCCCACTTGGGTTCTAACCTGTTGCGG (site TAGCTCACTCC) | 0.393 |
| TAGCCTACTTGGGTTCTAACCTGTTGCCG (site TAGCCTACTCG) | 0.725 |
| TAGCCTACTTGGGTTCTAACCTGTTGCCG (site TAGGCTCCTCG) | 0.0184 |
| TAGCCTACTTGGGTTCTAACCTGTTGCGA (site TAGCCTACTAC) | 0.0304 |
| TAGCCTACTTGGGTTCTAACCTGTTGCGA (site TAGCCTACTCC) | 0.416 |
| TAGCCTACTTGGGTTCTAACCTGTTGCGA (site TAGCCTACTGC) | 0.00843 |
| TAGCCTACTTGGGTTCTAACCTGTTGCGA (site TAGCCTACTTC) | 1.2 |
| TAGCCTACTTGGGTTCTAACCTGTTGCGC (site TAGCCTACTAC) | 0.0597 |
| TAGCCTACTTGGGTTCTAACCTGTTGCGC (site TAGCCTACTCC) | 0.0856 |
| TAGCCTACTTGGGTTCTAACCTGTTGCGC (site TAGCCTACTGC) | 1.84 |
| TAGCCTACTTGGGTTCTAACCTGTTGCGC (site TAGCCTACTTC) | 0.0255 |
| TAGCCTACTTGGGTTCTAACCTGTTGCGT (site TAGCCTACTAC) | 0.581 |
| TAGCCTACTTGGGTTCTAACCTGTTGCGT (site TAGCCTACTCC) | 0.0265 |

| Sequence | recombinant barcode read abundance (log10) |
| --- | --- |
| TAGCCTACTTGGGTTCTAACCTGTTGCGT (site TAGCCTACTGC) | 0.0357 |
| TAGCCTACTTGGGTTCTAACCTGTTGCGT (site TAGCCTACTTC) | 0 |
| TAGCCTTCTTGGGTTCTAACCTGTTGCAG (site TAGCCTTCTCT) | 1.14 |
| TAGCCTTCTTGGGTTCTAACCTGTTGCAG (site TAGGCGTCTCT) | 0.0752 |
| TAGCGGACTTGGGTTCTAACCTGTTGCCT (site TAGCAGACTAG) | 0.106 |
| TAGCGGACTTGGGTTCTAACCTGTTGCCT (site TAGCCGACTAG) | 0 |
| TAGCGGACTTGGGTTCTAACCTGTTGCCT (site TAGCGGACTAG) | 1.28 |
| TAGCGGACTTGGGTTCTAACCTGTTGCCT (site TAGCTGACTAG) | 0.0737 |
| TAGCGTCCTTGGGTTCTAACCTGTTGCAC (site TAGCGTCCTGT) | 1.11 |
| TAGCGTCCTTGGGTTCTAACCTGTTGCAC (site TCGCGTCCTTT) | 0.157 |
| TAGCTCCCTTGGGTTCTAACCTGTTGCCA (site TAGCTCCCTAG) | 0.676 |
| TAGCTCCCTTGGGTTCTAACCTGTTGCCA (site TAGCTCCCTCG) | 0.0851 |
| TAGCTCCCTTGGGTTCTAACCTGTTGCCA (site TAGCTCCCTGG) | 0.0734 |
| TAGCTCCCTTGGGTTCTAACCTGTTGCCA (site TAGCTCCCTTG) | 0.662 |
| TAGCTTACTTGGGTTCTAACCTGTTGCCG (site TAACTTACTAG) | 0.114 |
| TAGCTTACTTGGGTTCTAACCTGTTGCCG (site TAGCTTACTCG) | 0.523 |
| TAGGATACTTGGGTTCTAACCTGTTGCAA (site TAGGATACTAT) | 0.0732 |
| TAGGATACTTGGGTTCTAACCTGTTGCAA (site TAGGATACTCT) | 0.401 |
| TAGGATACTTGGGTTCTAACCTGTTGCAA (site TAGGATACTGT) | 0.0992 |
| TAGGATACTTGGGTTCTAACCTGTTGCAA (site TAGGATACTTT) | 1.98 |
| TAGGATTCTTGGGTTCTAACCTGTTGCGC (site ACCATACCTAT) | 0.114 |
